# Test system: pancreatic endoderm differentiations of hESCs
# Test: Suspension aggregate differentiation to pancreatic endoderm after Stage 1 treatment, Q-PCR
# Format: cell-based, human
# Settings: Stage 1 cultures treated with 0.1 μM Caffeic acid or 0.17 μM Ivermectin
# Experimental: FIGS. 10A-10I are bar graphs showing the relative gene expression levels of OCT4 (FIG. 10A), MIXL (FIG. 10B), HNF1B (FIG. 10C), HNF4A (FIG. 10D), PAX4 (FIG. 10E), NGN3 (FIG. 10F), NKX2.2 (FIG. 10G), NKX6.1 (FIG. 10H), and PTF1A (FIG. 10I) after treatment of suspension aggregate cell cultures at Stages 1 with DMSO (Control), 0.1 μM Caffeic acid or 0.17 μM Ivermectin agents. Untreated control samples were collected at d0 and d1 (left panel). Treated samples were collected at d2, d3, d5, d7, d9, d11, and d13. The columns for each day of the treated samples are (from left to right): DMSO, Caffeic acid, and Ivermectin. The cultures were differentiated to the end of Stage 4. The results from an untreated, pancreatic endoderm differentiation are shown on the right, with samples collected on days 0, 1, 2, 5, 8, 10 and 14.
# To further determine the effects of the above compounds (excluding those compounds that induced off-target differentiation), three selected compounds (chelerythrine chloride (FIGS. 5 & 6), caffeic acid and Ivermectin) were screened for effects on later stages of pancreatic differentiation, (such as Stages 2-5). Human ESCs were first differentiated through Stage 1 then to Stages 2 to 5 in suspension aggregate cultures similar to that above. Stage 1 cultures were treated with DMSO, caffeic acid or Ivermectin substantially as described above. Untreated control samples were collected at d0 (hESC) and d1 (FIG. 10, left panel), while treated samples were collected at days 2, 3, 5, 7, 9, 11 and 13 (FIG. 10 d2, d3, d5, d7, d9, d11 and d13 respectively). Gene expression levels in the collected samples were analyzed using Q-PCR and compared to the d0 (hESC) sample as well as qualified pancreatic endoderm (FIG. 10, right panel). The qualified pancreatic endoderm control consisted of about 50% pancreatic endoderm, about 46% endocrine cells and about 4% “other” cells as determined by flow cytometry. Neither caffeic acid nor Ivermectin affected survival, growth and/or proliferation of pancreatic endoderm differentiations. […] Typical gene expression levels for Stages 3, 4 and 5 cells were normal; for example, increased expression of NKX6.1 and PTF1A at Stage 4, pancreatic endoderm (FIGS. 10H and 10I), and of NGN3 and NKX2.2 at Stage 5, endocrine precursor and endocrine cells (FIGS. 10 F and 10G) was observed.
substance,measurement,setting,value
"22, 23-dihydroavermectin B1a+22,23-dihydroavermectin B1b [Ivermectin]","Typical gene expression levels for Stages 3, 4 and 5 cells (NKX6.1, PTF1A, NGN3, NKX2.2)",Q-PCR d2-d13,normal
same,"survival, growth and/or proliferation of pancreatic endoderm differentiations (pancreatic endoderm viability)",differentiated to end of Stage 4,did not affect pancreatic endoderm viability

# — patent US9365830B2, “Agents and methods for inhibiting human pluripotent stem cell growth” (VIACYTE, INC., priority 2010, dated 2016)
